We go through one molecule from patent US20250002446A1, “Acetoacetate Based Ketals” (ARXADA AG, priority 2021, published 2025).

The structures appear in SMILES notation.

The nature of the data set: Acetal cleavage in simulated gastric fluid (SGF). The note with it: 35-37° C., EtOAc extract analyzed by thin layer chromatography. It is filed as physicochemical. The protocol:
Acetal cleavage in simulated gastric fluid (SGF): propane-1,2,3-triyl tris(2-(2,4-dimethyl-1,3-dioxan-2-yl)acetate) (1 g, 2 mmol, 1 eq) was mixed with simulated gastric fluid (SGF) (5 g, 5 rel. eq.) at 35-37° C. After 30 min, 1 h and 2 h the mixture was sampled and extracted with EtOAc.

Regarding `CC1CCOC(C)(CC(=O)OCC(COC(=O)CC2(C)OCCC(C)O2)OC(=O)CC2(C)OCCC(C)O2)O1` (centres unmarked) [propane-1,2,3-triyl tris(2-(2,4-dimethyl-1,3-dioxan-2-yl)acetate)], the “hydrolysis to 1,3-butanediol and propane-1,2,3-triyl tris(3-oxobutanoate)” value (after 30 min) is “a majority of the product had hydrolyzed”; the “hydrolysis to 1,3-butanediol and propane-1,2,3-triyl tris(3-oxobutanoate)” value (after 1 h) is on record as “hydrolyzation was complete”.
